Measurements: ChEMBL document CHEMBL3507680, “University of Dundee, Gates Library screen for HepG2 cell viability”

Assay: Human HepG2 cell viability assay in 384 well format
Assay type: toxicity, cell-based
Design: dose 125 nL, time 70.5 hour; concentration not given beside the values
Settings: HepG2 cells, read-out: Inhibition

SMILES | cytotoxicity at 70.5 h
O=C(c1cnccn1)N1CCc2onc(CN3CCCC3)c2C1 | 1.69%
CNC(=O)N1CCC2(COCc3c(C)nc(NCc4ccco4)nc32)C1 (configuration not stated) | -6.98%
O=C(c1ccnnc1)N1CCc2onc(CN3CCCC3)c2C1 | -3.95%
CCN(C(=O)c1nc2c(s1)CCCN2Cc1ccccc1)C(C)C | -7.5%
Cc1nc(N2CCOCC2)nc2c1CCN(c1nccs1)CC2 | -5.03%
Cc1ccc(N2CC[C@@H]3O[C@@H](c4ccncn4)C[C@H]3C2)nn1 | -3.76%
O=C1[C@H]2CN(c3ncc(F)cn3)C[C@H]2CN1CC1CC1 | 5.29%
O=S(=O)(C1CC1)N1CCOC2(CCCN(c3ccccc3)C2)C1 (configuration not stated) | 7.04%
Cc1cnc(N2C[C@@H]3CCN(CC4CC4)C(=O)[C@H]3C2)nc1 | -4.98%
O=C(c1ccc(F)cc1)N1C[C@@H]2CN(c3ncccn3)C[C@@H]2C1 | -6.82%
O=S(=O)(C1CC1)N1CCC2(CCCN(c3ncc(F)cn3)C2)C1 (configuration not stated) | -11.2%
Cn1cnc2c1C(C(=O)N1CCCC1)N(S(C)(=O)=O)CC2 (configuration not stated) | -7.56%
O=C(CO)N1CC2(CCN(c3ccccc3)C2)C1 | -6.59%
CC(=O)N1CCC2(CC1)c1ncc(-c3ccccc3)n1CCN2C(C)=O | -5.58%
CN(C)c1nc(N2CCCC2)nc2c1CCN(C(=O)c1ccoc1)CC2 | 0.617%
O=C1NCCO[C@H]2CN(C(=O)CCc3ccc(Cl)cc3)CC[C@@H]12 | -17.3%
O=C1CC[C@@H]2[C@@H](CCN2C(=O)C2CCOCC2)N1CC1CC1 | -8.18%
CCOc1ccc(CCC(=O)N2CC[C@H]3C(=O)NCCO[C@H]3C2)cc1 | -10.6%
O=C1CC(c2cccs2)Cc2[nH]c(=O)ccc21 (configuration not stated) | -7.47%
O=C1CC(c2cccs2)Cc2[nH]c(=O)c(C(=O)NC3CCCC3)cc21 (configuration not stated) | -12.4%
COc1cc(CCO)c(OC)c2c1OCO2 | -7.84%
COc1cccc(C2SCC(=O)Nc3ccsc32)c1OC (configuration not stated) | 1.7%
O=C1CC(c2ccc(C(=O)O)cc2)c2ncn(-c3cccnc3)c2N1 (configuration not stated) | -2.41%

SMILES | cytotoxicity at 70.5 h
COc1cc(C2SCC(=O)Nc3ccsc32)cc(OC)c1O (configuration not stated) | -4.76%
COCCNC(=O)c1cc2c(nc1O)CC(c1cccs1)CC2=O (configuration not stated) | -12.9%
CC1CCc2nc(O)c(C(=O)NCc3ccccn3)cc2C1 (configuration not stated) | -5.86%
CC1CCc2nc(O)c(C(=O)NCCc3cccs3)cc2C1 (configuration not stated) | -7.76%
CCOC(=O)N1CCN(c2nc(NCCO)c3ccccc3n2)CC1 | -9.59%
CC(=O)c1ccc(-n2ccc3nc(N4CCCC4)ncc3c2=O)cc1 | -5.08%
O=c1c2cnc(N3CCCC3)nc2ccn1-c1cccc(F)c1 | -0.217%
CCCN1Cc2cc(Br)ccc2OCC1=O | 28.2%
CN(c1ncc(C(=O)NCc2ccccc2)c(N)n1)C1CCCCC1 | 18%
CN(c1ncc(C(=O)Nc2ccccc2)c(N)n1)C1CCCCC1 | -0.75%
COc1cc(OC)c(-n2nnc(C(=O)O)c2C)cc1Cl | 1.66%
CC(C)=CCC/C(C)=C/CC(C)(C)CNCc1ccco1 | -1%
COc1ccc(OCC(=O)n2nc(C)c(C)c2C)cc1 | 3.85%
CCOc1cc2c(cc1CCC(=O)O)CCC2 | 7.85%
CCOc1cc2c(cc1C(=O)O)CCC2 | 11.4%
Cc1cc(NCCO)nc(N2CCCC2)c1C#N | 2.8%
COCc1nc2nc(O)c3c(n2n1)NC(=O)CC3c1ccccc1Cl (configuration not stated) | 4.14%
CC(=O)N1CCc2nc3sc(C(N)=O)c(N)c3c(C(F)(F)F)c2C1 | 6.92%
CC(=O)Nc1nc(-c2ccc(C)c(C)c2)c[nH]1 | 0.35%
O=c1[nH]nc(-c2cccs2)c2sc(N3CCOCC3)nc12 | -4.15%
Cc1nc(C#N)c(N2CCC(c3nc(-c4ccccc4)no3)CC2)o1 | -4.24%
Oc1nnc(-c2cccs2)c2sc(N3CCCCC3)nc12 | -1.82%
O=c1[nH]c2nc(N3CCCC3)ncc2c(=O)n1-c1cccc(F)c1 | -16.9%

SMILES | cytotoxicity at 70.5 h
NC(=O)C1CCN(c2nc3nccc(-c4cccnc4)c3c(=O)[nH]2)CC1 | -2.94%
CCN(c1ccc(C(=O)NCCCN2CCCCC2)cc1)S(=O)(=O)CC | -26.7%
COc1ccccc1C1CC(=O)Nc2nc(N3CCCCC3)sc21 (configuration not stated) | -18.8%
O=C(NCc1ccccc1)c1nn(C2CCS(=O)(=O)C2)c2c1CCCC2 (configuration not stated) | 4.17%
Nc1nc2c(s1)C(c1c(F)cccc1Cl)CC(=O)N2 (configuration not stated) | 1.77%
CC(C)OCCCNC(=O)c1c(-n2cnnn2)sc2c1CCCC2 | -25.4%
Cc1cc(O)c(OCC(=O)/N=c2\[nH]c(C)c(C)s2)cn1 | 5.16%
Cc1cc(O)c(OCC(=O)/N=c2/[nH]c3c(s2)CCC3)cn1 | -14.7%
COc1ccc(C2SCC(=O)Nc3n[nH]cc32)c(OC)c1OC (configuration not stated) | 5.69%
O=C(c1cc(-n2cnnn2)ccc1Cl)N1CCOCC1 | -21.4%
Cc1cc(O)c(OCC(=O)Nc2nc3c(s2)CCCCC3)cn1 | -1.73%
CC(C)CNC(=O)c1c(-n2cnnn2)sc2c1CCCC2 | -4.4%
COc1cccc(C2CC(=O)Nc3nc(N4CCCCC4)sc32)c1OC (configuration not stated) | -6.7%
O=C1CC(c2ccccc2Br)c2sc(N3CCOCC3)nc2N1 (configuration not stated) | 2.49%
CC(C)Oc1ccccc1C1CC(=O)Nc2nc(N3CCOCC3)sc21 (configuration not stated) | -13.2%
COc1ccc(OC)c(C2CC(=O)Nc3nc(N4CCOCC4)sc32)c1 (configuration not stated) | 4.11%
COc1ccc(C2CC(=O)Nc3nc(N4CCOCC4)sc32)cc1 (configuration not stated) | -6.38%
COCCCNC(=O)c1c(-n2cnnn2)sc2c1CCC2 | -3.39%
Cn1ncc2c1NC(=O)CSC2c1ccccc1Cl (configuration not stated) | 14.7%
CC(C)CCn1[nH]c(CNc2ccc(Cl)cc2)nc1=O | 0.442%
CNc1nc2c(s1)C(c1cccc(Cl)c1Cl)CC(=O)N2 (configuration not stated) | -8.56%
CNc1nc2c(s1)C(c1ccc(Cl)cc1Cl)CC(=O)N2 (configuration not stated) | -5.21%
Cc1ccc(N2N=C(C(N)=O)S(=O)(=O)c3cccnc32)cc1 | -2.2%

SMILES | cytotoxicity at 70.5 h
CCOc1cc(=O)n2c(c1C(=O)OCc1ccc(C)cc1)CCCC2 | 24.4%
CC1CCN(c2ncc3c(n2)CN(c2ccccc2)C3=O)CC1 | -9.08%
CCn1nccc1CNC(=O)NC1CCCCC1 | 6.27%
Cc1cc(=O)n(CC(=O)NCC2CCCO2)c(-c2cccc(Cl)c2)n1 (configuration not stated) | -2.89%
Cc1cc(=O)n(CC(=O)NCCC(C)C)c(-c2cccc(Cl)c2)n1 | -1.79%
CN1CCCCC(C2CCN(S(=O)(=O)c3cn(C)cn3)CC2)C1=O (configuration not stated) | 0.674%
O=C(c1ccnc(C2CCNCC2)c1)N1CCCC(CO)C1 (configuration not stated) | -2.32%
O=C1CCOC[C@]2(CN(Cc3ccccc3)C[C@H]2c2cccnc2)N1 | 15.4%
CC(C)N1CCOC(c2ccnc(N(C)C)n2)C1 (configuration not stated) | -3.86%
COCC(=O)NC(Cc1cc(N(C)C)nc(C2CC2)n1)c1ccccc1 (configuration not stated) | -2.08%
Cc1ccc(OCCCNC(=O)C2(C)CC(=O)N3C=CC=CC3=N2)cc1 (configuration not stated) | -3.61%
NC(=O)CN1CCC(c2csc(Nc3cnccn3)n2)CC1 | -4.74%
COCC(=O)NCc1ccc(-c2ccccc2C(=O)O)cn1 | -3.58%
FC(F)(F)c1cc(C2CCCN(c3ncccn3)C2)n2ccnc2n1 (configuration not stated) | -2.5%
Cc1cc(C)nc(Nc2nccnc2C2CCCN(CCO)C2)n1 (configuration not stated) | -3.54%
Cc1ccccc1OC1CCN(CC(=O)Nc2c(C)nn(C)c2C)CC1 | 1.35%
Cc1nc(CCC(N)=O)cc(C2CCCN2S(C)(=O)=O)n1 (configuration not stated) | 0.687%
O=C(c1cc2cccc(F)c2[nH]1)N1C[C@@H](O)[C@H](N2CCOCC2)C1 | -5.87%
COCCNC(=O)CN1CC=C(n2c(C)nc(=O)c3ccccc32)CC1 | 0.895%
O=C(c1ccc2c(c1)CCCC2)N1CCn2ncnc2C1 | 2.9%
Cc1nn(C)c(C)c1-c1cnc(CC2CCNC2)cn1 (configuration not stated) | -4.3%
Cc1cc(C)nc(Nc2nccnc2C2CCCN(C(C)C)C2)n1 (configuration not stated) | 1.6%
CCOC(=O)N1CCN(c2nc(NC3CC3)c3ccccc3n2)CC1 | 3.06%

SMILES | cytotoxicity at 70.5 h
CNCc1ccc(OCc2ccc3c(c2)OCCO3)cc1 | -3.57%
CC(C)(C)NCc1ccc(OCc2ccc3c(c2)OCCO3)cc1 | 8.79%
Cc1nc(Nc2cnccn2)cc(C2CCCN2)n1 (configuration not stated) | 19.5%
COC(C)(C)C(=O)N1CCC(c2cc(CN(C)C)n(C)n2)CC1 | -10.8%
CN1CCCC(c2ccc(N3CCOCC3)cn2)C1 (configuration not stated) | -3.9%
Cc1cc(C)n(CCCn2cncc2-c2ccc3c(c2)CC(C)N3C)n1 (configuration not stated) | 2%
Cc1nn(C)c(C)c1CCn1cncc1-c1ccc2c(c1)CC(C)N2C (configuration not stated) | 4.43%
CCN1c2ccc(-c3cncn3CCCn3ccnc3C)cc2CC1C (configuration not stated) | -0.494%
c1cc(CNc2cnc(C3CCCN3)cn2)ccn1 (configuration not stated) | -1.63%
CN1CCO[C@@H]2CN(S(=O)(=O)c3ccccc3F)CC[C@@H]2C1 | -1.61%
O=C(c1ccccn1)N1CCOC2(COCCN(Cc3cc[nH]n3)C2)C1 (configuration not stated) | -3.84%
CC(C)n1cnc2c1C(C(=O)N1CCOCC1)N(CC1CC1)CC2 (configuration not stated) | -15.8%
Cc1cnc(N2C[C@@H]3CCN(CC(=O)N(C)C)C(=O)[C@H]3C2)nc1 | 4.34%
CCN1C[C@@H]2CN(C(=O)NCc3ccccc3)CCC[C@]2(C(=O)O)C1 | -15.2%
CCc1ccc(CN2CCc3c(nnn3C)C2COC)cc1 (configuration not stated) | -5.54%
CN1C[C@@H]2CN(C(=O)NCc3ccccc3)CCC[C@]2(C(=O)O)C1 | -1.78%
CC(C)N1C[C@@H]2CN(C(=O)NCc3ccccc3)CCC[C@]2(C(=O)O)C1 | -4.97%
c1ccc(CN2CCCn3nnc(COc4ccccn4)c3C2)nc1 | -11.2%
Cc1ccc(N2C[C@@H]3CN(Cc4csc(C)n4)CCO[C@@H]3C2)nn1 | -2.48%
CN(C)c1nc(N2CCCC2)nc2c1CCN(C(=O)c1ccco1)CC2 | -7.2%
